# Data: ChEMBL document CHEMBL4002566, “S-substituted 3,5-dinitrophenyl 1,3,4-oxadiazole-2-thiols and tetrazole-5-thiols as highly efficient antitubercular agents” (Eur J Med Chem, 2017)
# pIC50: −log10 of the molar value.
# Tests used:
# Mycobacterium avium [1] = assay: Antimycobacterial activity against Mycobacterium avium CNCTC My 330/88 after 21 days by micromethod; assay type: functional; conditions: CNCTC My 330/88, 504 h
# [2] = tested on: Mycobacterium tuberculosis; assay: Antimycobacterial activity against Mycobacterium tuberculosis CNCTC My 331/88 after 14 days by micromethod; assay type: functional; conditions: CNCTC My 331/88, 336 h
# Mycobacterium avium [3] = assay: Antimycobacterial activity against Mycobacterium avium CNCTC My 330/88 after 14 days by micromethod; assay type: functional; conditions: CNCTC My 330/88, 336 h
# Mycobacterium kansasii [4] = assay: Antimycobacterial activity against Mycobacterium kansasii CNCTC My 235/80 after 14 days by micromethod; assay type: functional; conditions: CNCTC My 235/80, 336 h
# Mycobacterium kansasii [5] = assay: Antimycobacterial activity against Mycobacterium kansasii 6509/96 clinical isolate after 14 days by micromethod; assay type: functional; conditions: 6509/96, 336 h
# Candida albicans [6] = assay: Antifungal activity against Candida albicans ATCC 44859 after 24 hrs by broth microdilution method; assay type: functional; conditions: ATCC 44859, 24 h
# Candida albicans [7] = assay: Antifungal activity against Candida albicans ATCC 44859 after 48 hrs by broth microdilution method; assay type: functional; conditions: ATCC 44859, 48 h
# Candida tropicalis [8] = assay: Antifungal activity against Candida tropicalis 156 after 24 hrs by broth microdilution method; assay type: functional; conditions: Candida tropicalis, 156, 24 h
# Candida tropicalis [9] = assay: Antifungal activity against Candida tropicalis 156 after 48 hrs by broth microdilution method; assay type: functional; conditions: Candida tropicalis, 156, 48 h
# Pichia kudriavzevii [10] = assay: Antifungal activity against Candida krusei E28 after 24 hrs by broth microdilution method; assay type: functional; conditions: E28, 24 h
# Pichia kudriavzevii [11] = assay: Antifungal activity against Candida krusei E28 after 48 hrs by broth microdilution method; assay type: functional; conditions: E28, 48 h
# Nakaseomyces glabratus [12] = assay: Antifungal activity against Candida glabrata 20/I after 24 hrs by broth microdilution method; assay type: functional
# Nakaseomyces glabratus [13] = assay: Antifungal activity against Candida glabrata 20/I after 48 hrs by broth microdilution method; assay type: functional
# Trichosporon asahii [14] = assay: Antifungal activity against Trichosporon asahii 1188 after 24 hrs by broth microdilution method; assay type: functional; conditions: Trichosporon asahii, 1188, 24 h
# Trichosporon asahii [15] = assay: Antifungal activity against Trichosporon asahii 1188 after 48 hrs by broth microdilution method; assay type: functional; conditions: Trichosporon asahii, 1188, 48 h
# Aspergillus fumigatus [16] = assay: Antifungal activity against Aspergillus fumigatus 231 after 24 hrs by broth microdilution method; assay type: functional; conditions: Aspergillus fumigatus, 231, 24 h
# Aspergillus fumigatus [17] = assay: Antifungal activity against Aspergillus fumigatus 231 after 48 hrs by broth microdilution method; assay type: functional; conditions: Aspergillus fumigatus, 231, 48 h
# Lichtheimia corymbifera [18] = assay: Antifungal activity against Absidia corymbifera 272 after 24 hrs by broth microdilution method; assay type: functional; conditions: Lichtheimia corymbifera, 272, 24 h
# Lichtheimia corymbifera [19] = assay: Antifungal activity against Absidia corymbifera 272 after 48 hrs by broth microdilution method; assay type: functional; conditions: Lichtheimia corymbifera, 272, 48 h
# [20] = tested on: Trichophyton mentagrophytes; assay: Antifungal activity against Trichophyton mentagrophytes 445 after 72 hrs by broth microdilution method; assay type: functional; conditions: Trichophyton mentagrophytes, 445, 72 h
# [21] = tested on: Trichophyton mentagrophytes; assay: Antifungal activity against Trichophyton mentagrophytes 445 after 120 hrs by broth microdilution method; assay type: functional; conditions: Trichophyton mentagrophytes, 445, 120 h
# Staphylococcus aureus [22] = assay: Antibacterial activity against Staphylococcus aureus ATCC 6538 after 24 hrs by broth microdilution method; assay type: functional; conditions: ATCC 6538, 24 h
# Staphylococcus aureus [23] = assay: Antibacterial activity against Staphylococcus aureus ATCC 6538 after 48 hrs by broth microdilution method; assay type: functional; conditions: ATCC 6538, 48 h
# Staphylococcus aureus [24] = assay: Antibacterial activity against methicillin-resistant Staphylococcus aureus HK5996/08 after 24 hrs by broth microdilution method; assay type: functional; conditions: HK5996/08, 24 h
# Staphylococcus aureus [25] = assay: Antibacterial activity against methicillin-resistant Staphylococcus aureus HK5996/08 after 48 hrs by broth microdilution method; assay type: functional; conditions: HK5996/08, 48 h
# [26] = tested on: Staphylococcus epidermidis; assay: Antibacterial activity against Staphylococcus epidermidis HK6996/08 after 24 hrs by broth microdilution method; assay type: functional; conditions: HK6996/08, 24 h
# [27] = tested on: Staphylococcus epidermidis; assay: Antibacterial activity against Staphylococcus epidermidis HK6996/08 after 48 hrs by broth microdilution method; assay type: functional; conditions: HK6996/08, 48 h
# Enterococcus sp. [28] = assay: Antibacterial activity against Enterococcus sp. HK14365/08 after 24 hrs by broth microdilution method; assay type: functional; conditions: HK14365/08, 24 h
# Enterococcus sp. [29] = assay: Antibacterial activity against Enterococcus sp. HK14365/08 after 48 hrs by broth microdilution method; assay type: functional; conditions: HK14365/08, 48 h
# Escherichia coli [30] = assay: Antibacterial activity against Escherichia coli ATCC 8739 after 24 hrs by broth microdilution method; assay type: functional; conditions: ATCC 8739, 24 h
# Escherichia coli [31] = assay: Antibacterial activity against Escherichia coli ATCC 8739 after 48 hrs by broth microdilution method; assay type: functional; conditions: ATCC 8739, 48 h
# Klebsiella pneumoniae [32] = assay: Antibacterial activity against Klebsiella pneumoniae HK11750/08 after 24 hrs by broth microdilution method; assay type: functional; conditions: HK11750/08, 24 h
# Klebsiella pneumoniae [33] = assay: Antibacterial activity against Klebsiella pneumoniae HK11750/08 after 48 hrs by broth microdilution method; assay type: functional; conditions: HK11750/08, 48 h
# Klebsiella pneumoniae [34] = assay: Antibacterial activity against extended spectrum beta-lactamase producing Klebsiella pneumoniae HK14368/08 after 24 hrs by broth microdilution method; assay type: functional; conditions: HK14368/08, 24 h
# Klebsiella pneumoniae [35] = assay: Antibacterial activity against extended spectrum beta-lactamase producing Klebsiella pneumoniae HK14368/08 after 48 hrs by broth microdilution method; assay type: functional; conditions: HK14368/08, 48 h
# Pseudomonas aeruginosa [36] = assay: Antibacterial activity against Pseudomonas aeruginosa ATCC 9027 after 24 hrs by broth microdilution method; assay type: functional; conditions: ATCC 9027, 24 h
# Pseudomonas aeruginosa [37] = assay: Antibacterial activity against Pseudomonas aeruginosa ATCC 9027 after 48 hrs by broth microdilution method; assay type: functional; conditions: ATCC 9027, 48 h
# [38] = Cytotoxicity against human HuH7 cells assessed as cell viability at 30 uM after 48 hrs by MTS assay relative to control; assay type: cell-based, Huh-7; conditions: read-out: Activity
# Huh-7 = assay: Cytotoxicity against human HuH7 cells assessed as cell viability after 48 hrs by MTS assay; assay type: cell-based; conditions: Huh-7, 48 h
# A-431 = assay: Cytotoxicity against human A431 cells assessed as cell viability after 48 hrs by MTS assay; assay type: cell-based; conditions: A-431, 48 h
# [39] = Cytotoxicity against human A431 cells assessed as cell viability at 30 uM after 48 hrs by MTS assay relative to control; assay type: cell-based, A-431; conditions: read-out: Activity
# MDCK = assay: Cytotoxicity against MDCK cells assessed as cell viability after 48 hrs by MTS assay; assay type: cell-based; conditions: Canis lupus familiaris
# [40] = Cytotoxicity against MDCK cells assessed as cell viability at 30 uM after 48 hrs by MTS assay relative to control; assay type: cell-based, Canis lupus familiaris; conditions: dog, read-out: Activity
# HepG2 = assay: Cytotoxicity against human HepG2 cells assessed as cell viability after 48 hrs by MTS assay; assay type: cell-based; conditions: HepG2, 48 h
# [41] = Cytotoxicity against human HepG2 cells assessed as cell viability at 30 uM after 48 hrs by MTS assay relative to control; assay type: cell-based; conditions: read-out: Activity
# [42] = Selectivity index, ratio of IC50 for human HepG2 cells to MIC for Mycobacterium tuberculosis; assay type: toxicity; conditions: read-out: Selectivity Index
# [43] = tested on: Mycobacterium tuberculosis; assay: Antimycobacterial activity against Mycobacterium tuberculosis CNCTC My 331/88 after 21 days by micromethod; assay type: functional; conditions: CNCTC My 331/88, 504 h
# Mycobacterium kansasii [44] = assay: Antimycobacterial activity against Mycobacterium kansasii CNCTC My 235/80 after 21 days by micromethod; assay type: functional; conditions: CNCTC My 235/80, 504 h
# Mycobacterium kansasii [45] = assay: Antimycobacterial activity against Mycobacterium kansasii CNCTC My 235/80 after 7 days by micromethod; assay type: functional; conditions: CNCTC My 235/80, 168 h
# Mycobacterium kansasii [46] = assay: Antimycobacterial activity against Mycobacterium kansasii 6509/96 clinical isolate after 21 days by micromethod; assay type: functional; conditions: 6509/96, 504 h
# Mycobacterium kansasii [47] = assay: Antimycobacterial activity against Mycobacterium kansasii 6509/96 clinical isolate after 7 days by micromethod; assay type: functional; conditions: 6509/96, 168 h
compound,measurement,setting,value
O=[N+]([O-])c1cc(-n2nnnc2SCc2ccc(Cl)cc2)cc([N+](=O)[O-])c1,MIC,Mycobacterium avium [1],16 µM
same,MIC,[2],0.5 µM
same,MIC,Mycobacterium avium [3],8 µM
same,MIC,Mycobacterium kansasii [4],2 µM
same,MIC,Mycobacterium kansasii [5],1 µM
same,MIC,Candida albicans [6],> 500 µM
same,MIC,Candida albicans [7],> 500 µM
same,MIC,Candida tropicalis [8],> 500 µM
same,MIC,Candida tropicalis [9],> 500 µM
same,MIC,Pichia kudriavzevii [10],> 500 µM
same,MIC,Pichia kudriavzevii [11],> 500 µM
same,MIC,Nakaseomyces glabratus [12],> 500 µM
same,MIC,Nakaseomyces glabratus [13],> 500 µM
same,MIC,Trichosporon asahii [14],> 500 µM
same,MIC,Trichosporon asahii [15],> 500 µM
same,MIC,Aspergillus fumigatus [16],> 500 µM
same,MIC,Aspergillus fumigatus [17],> 500 µM
same,MIC,Lichtheimia corymbifera [18],> 500 µM
same,MIC,Lichtheimia corymbifera [19],> 500 µM
same,MIC,[20],> 500 µM
same,MIC,[21],> 500 µM
same,MIC,Staphylococcus aureus [22],125 µM
same,MIC,Staphylococcus aureus [23],125 µM
same,MIC,Staphylococcus aureus [24],125 µM
same,MIC,Staphylococcus aureus [25],125 µM
same,MIC,[26],500 µM
same,MIC,[27],500 µM
same,MIC,Enterococcus sp. [28],> 500 µM
same,MIC,Enterococcus sp. [29],> 500 µM
same,MIC,Escherichia coli [30],> 500 µM
same,MIC,Escherichia coli [31],> 500 µM
same,MIC,Klebsiella pneumoniae [32],> 500 µM
same,MIC,Klebsiella pneumoniae [33],> 500 µM
same,MIC,Klebsiella pneumoniae [34],> 500 µM
same,MIC,Klebsiella pneumoniae [35],> 500 µM
same,MIC,Pseudomonas aeruginosa [36],> 500 µM
same,MIC,Pseudomonas aeruginosa [37],> 500 µM
same,"viability at 48 h, 30 µM",[38],115%
same,pIC50,Huh-7,< 4.52
same,pIC50,A-431,< 4.52
same,"viability at 48 h, 30 µM",[39],74%
same,pIC50,MDCK,< 4.52
same,"viability at 48 h, 30 µM",[40],85%
same,pIC50,HepG2,< 4.52
same,"viability at 48 h, 30 µM",[41],134%
same,selectivity ratio,[42],> 60
same,MIC,[43],0.5 µM
same,MIC,Mycobacterium kansasii [44],4 µM
same,MIC,Mycobacterium kansasii [45],1 µM
same,MIC,Mycobacterium kansasii [46],1 µM
same,MIC,Mycobacterium kansasii [47],0.5 µM
